Reference: patent US11458189B2, “Cytoprotective drugs” (BALMES TRANSPLANTATION, priority 2017, dated 2022)
Starred links: 1 amine or outer side, 2 acyl side, 3 side chain; linkers in the order of their positions; H or OH if unused. Positions of bridges follow the written chain, without caps; N, C: chain ends. Non-standard residues stand in square brackets, D forms with d. Residues, ends and D or L forms follow the SMILES beside them. *: point of attachment. hTyr(3S-OH,4S-OH,3'-OSO3H) = N[C@H](C(=O)O)[C@H](O)[C@@H](O)c1ccc(O)c(OS(=O)(=O)O)c1; Orn(4R-OH,5R-OH) = O=C([C@H](C[C@@H](O)[C@@H](O)N[*:3])N[*:1])[*:2]; Pro(3S-OH,4S-Me) = C[C@H]1CN[C@H](C(=O)O)[C@H]1O; X1 = CCCCCOc1ccc(-c2cc(-c3ccc(C(=O)*)cc3)no2)cc1; Gln(3R-OH) = NC(=O)C[C@@H](O)[C@H](N)C(=O)O; Hyp = O=C(O)[C@@H]1C[C@@H](O)CN1

Tested on: Human Cardiac Microvascular Endothelial Cells (HCMEC)
Assay: Oxygen and glucose deprivation followed by replenishment, cell survival (calcein AM), HCMEC
Format: cell-based
Protocol: Anidulafungin and micafungin were tested on Human Renal Glomerular Endothelial Cells (HRGEC, Innoprot P10665), on Human Renal Proximal Tubular Epithelial Cells (HRPTEpiC, Innoprot P10662), on Human Astrocytes (HA, caltag SC-1800), on Human Cardiac Microvascular Endothelial Cells (HCMEC, Caltag SC-6000), on Human Hepatic Sinusoidal Endothelial Cells (HHSEC, Caltag SC-5000), on Rat Primary Kidney Glomerular Endothelial cells (Cellbiologics, RN-6014G) and on Bovine Brain Microvascular Endothelial Cells (BBMEC, Caltag SC-B100).
In a first phase, these isolated, purified and cryopreserved cells are thawed and multiplied according to the supplier's recommendations in T75 or T175 flasks pre-coated with 2 μg of fibronectin/[…] (CORNING) for HRGEC, HCMEC, HHSEC and BBMEC, or 2 μg poly-L-lysin/cm^2 (Caltag SC-0403) for HRPTEpiC and HA, or 15 mL/flask 175 cm^2 gelatin-based solution (Cellbiologics) in the presence of endothelial cell supplemented growth medium ECM (P60104, INNOPROT, Caltag, SC-1001) for HRGEC, HCMEC, HHSEC, RPKGEC or BBMEC, or astrocyte cell supplemented growth medium AM (Caltag SC-1801) for HA or epithelial cell supplemented growth medium EpiCM (P60106, INNOPROT) for HRPTEpiC, at 37° C. under 5% CO2 and saturated humidity until their confluency. They are then harvested by trypsinization according to the method described by the supplier for exactly 5 minutes and then reseeded in new flasks a maximum of three times.
To carry out the oxygen and glucose deprivation test followed by their replenishment, the cells will be seeded in 96-well black plates with transparent flat bottom (GREINER). Once a sufficient number of cells has been obtained to allow seeding of 2000 to 15000 cells per well of 96-well plates depending on the cell type, the cells are seeded in these 96-well plates previously coated with an extracellular matrix as listed above for the flasks. The cells are cultured for 5 to 8 days according to the cell type, in the presence of the same growth medium as in the flask as described above except for HRGEC and HRPTEpiC for which DMEM (DUTSCHER) with 1 g/L of supplemented glucose is used, at 37° C. under 5% CO2 and saturated humidity to obtain confluency.
On the first day of oxygen and glucose deprivation, (5th, 6th, 7th or 8th day of culture), the culture conditions are drastically changed. The medium of all plates is removed and replaced by DMEM (DUTSCHER) medium without glucose and supplemented only with 1% penicillin-streptomycin (DUTSCHER). Anidulafungin or micafungin dissolved in dimethyl sulfoxide (DMSO) is then added to each well at the desired concentration, resulting in a maximum of 1% DMSO, and the plates are placed under hypoxia at <1% 02 and 5% CO2 at 37° C. for 24 hours of culture. Each compound was tested in a concentration range.
After 24 hours, the growth medium is changed and replaced by a richer medium, DMEM (DUTSCHER) at 1 g/L glucose and 2% FBS (INNOPROT) and 1% penicillin-streptomycin (DUTSCHER). These media will have been pre-equilibrated at 37° C. in advance. The cells are then returned to culture at 37° C. under 20% 02 and 5% CO2 for 22h.
After 22 hours of reoxygenation, the potential protective effect of anidulafungin or micafungin is measured by a cell viability test using calcein AM (CORNING), which is a dye substrate. The calcein AM can easily cross the cell membrane of the viable cells. The AM ester groups mask the part of the molecule that chelates calcium. Once inside the cells, the (non-fluorescent) calcein AM is hydrolyzed to (fluorescent) calcein by endogenous esterases. The resulting calcein molecule binds to calcium inside the cell and remains trapped inside the cell. These molecules emit strong green fluorescence when subjected to […] of a particular wavelength (495 nm). Since dead cells lack esterase activity, only living cells are labelled.
This cell viability test is performed in two steps. […]

CCCCCOc1ccc(-c2cc(-c3ccc(C(=O)N[C@H]4C[C@@H](O)[C@@H](O)NC(=O)[C@@H]5[C@@H](O)[C@@H](C)CN5C(=O)[C@H]([C@H](O)CC(N)=O)NC(=O)[C@H]([C@H](O)[C@@H](O)c5ccc(O)c(OS(=O)(=O)O)c5)NC(=O)[C@@H]5C[C@@H](O)CN5C(=O)[C@H]([C@@H](C)O)NC4=O)cc3)no2)cc1 [Micafungin, {5-[(1S,2S)-2-[(3S,6S,9S,11R,15S,18S,20R,21R,24S,25S,26S)-3-[(1R)-2-carbamoyl-1-hydroxyethyl]-11,20,21,25-tetrahydroxy-15-[(1R)-1-hydroxyethyl]-26-methyl-2,5,8,14,17,23-hexaoxo-18-[(4-{5-[4-(pentyloxy)phenyl]-1,2-oxazol-3-yl}benzene)amido]-1,4,7,13,16,22-hexaazatricyclo[22.3.0.0]heptacosan-6-yl]-1,2-dihydroxyethyl]-2-hydroxyphenyl}oxidanesulfonic acid] (X1-[Orn(4R-OH,5R-OH)]T[Hyp][hTyr(3S-OH,4S-OH,3'-OSO3H)][Gln(3R-OH)][Pro(3S-OH,4S-Me)]; lactam 1-C)
Globalfluo assay 1 ([Micafungin] log μM 0): 4455401 arbitrary units | Globalfluo assay 2 ([Micafungin] log μM 0): 4660836 arbitrary units | Globalfluo assay 3 ([Micafungin] log μM 0): 4639734 arbitrary units | Mean globalfluo ([Micafungin] log μM 0): 4585324 arbitrary units | Survival rate (%) ([Micafungin] log μM 0): −3% | Globalfluo assay 1 ([Micafungin] log μM 0.4771213): 5103911 arbitrary units | Globalfluo assay 2 ([Micafungin] log μM 0.4771213): 5348145 arbitrary units | Globalfluo assay 3 ([Micafungin] log μM 0.4771213): 4886218 arbitrary units | Mean globalfluo ([Micafungin] log μM 0.4771213): 5112758 arbitrary units | Survival rate (%) ([Micafungin] log μM 0.4771213): 0% | Globalfluo assay 1 ([Micafungin] log μM 0.7781513): 5452718 arbitrary units | Globalfluo assay 2 ([Micafungin] log μM 0.7781513): 4992821 arbitrary units | Globalfluo assay 3 ([Micafungin] log μM 0.7781513): 6254079 arbitrary units | Mean globalfluo ([Micafungin] log μM 0.7781513): 5566539 arbitrary units | Survival rate (%) ([Micafungin] log μM 0.7781513): 3% | Globalfluo assay 1 ([Micafungin] log μM 0.90309): 5299685 arbitrary units | Globalfluo assay 2 ([Micafungin] log μM 0.90309): 5787047 arbitrary units | Globalfluo assay 3 ([Micafungin] log μM 0.90309): 5397439 arbitrary units | Mean globalfluo ([Micafungin] log μM 0.90309): 5494724 arbitrary units | Survival rate (%) ([Micafungin] log μM 0.90309): 3% | Globalfluo assay 1 ([Micafungin] log μM 1): 5522064 arbitrary units | Globalfluo assay 2 ([Micafungin] log μM 1): 5305822 arbitrary units | Globalfluo assay 3 ([Micafungin] log μM 1): 6090892 arbitrary units | Mean globalfluo ([Micafungin] log μM 1): 5639593 arbitrary units | Survival rate (%) ([Micafungin] log μM 1): 3% | Globalfluo assay 1 ([Micafungin] log μM 1.079181): 5365305 arbitrary units | Globalfluo assay 2 ([Micafungin] log μM 1.079181): 5914359 arbitrary units | Globalfluo assay 3 ([Micafungin] log μM 1.079181): 4948085 arbitrary units | Mean globalfluo ([Micafungin] log μM 1.079181): 5409250 arbitrary units | Survival rate (%) ([Micafungin] log μM 1.079181): 2% | Globalfluo assay 1 ([Micafungin] log μM 1.176091): 5886475 arbitrary units | Globalfluo assay 2 ([Micafungin] log μM 1.176091): 5800515 arbitrary units | Globalfluo assay 3 ([Micafungin] log μM 1.176091): 6203727 arbitrary units | Mean globalfluo ([Micafungin] log μM 1.176091): 5963572 arbitrary units | Survival rate (%) ([Micafungin] log μM 1.176091): 5% | Globalfluo assay 1 ([Micafungin] log μM 1.30103): 6537106 arbitrary units | Globalfluo assay 2 ([Micafungin] log μM 1.30103): 5661218 arbitrary units | Globalfluo assay 3 ([Micafungin] log μM 1.30103): 6414894 arbitrary units | Mean globalfluo ([Micafungin] log μM 1.30103): 6204406 arbitrary units | Survival rate (%) ([Micafungin] log μM 1.30103): 7% | Globalfluo assay 1 ([Micafungin] log μM 1.477121): 5692141 arbitrary units | Globalfluo assay 2 ([Micafungin] log μM 1.477121): 6434487 arbitrary units | Globalfluo assay 3 ([Micafungin] log μM 1.477121): 7272557 arbitrary units | Mean globalfluo ([Micafungin] log μM 1.477121): 6466395 arbitrary units | Survival rate (%) ([Micafungin] log μM 1.477121): 8% | Globalfluo assay 1 ([Micafungin] log μM −0.5228788): 4445501 arbitrary units | Globalfluo assay 2 ([Micafungin] log μM −0.5228788): 5528681 arbitrary units | Globalfluo assay 3 ([Micafungin] log μM −0.5228788): 4443191 arbitrary units | Mean globalfluo ([Micafungin] log μM −0.5228788): 4805791 arbitrary units | Survival rate (%) ([Micafungin] log μM −0.5228788): −1% | Globalfluo assay 1 ([Micafungin] log μM −1): 4527783 arbitrary units | Globalfluo assay 2 ([Micafungin] log μM −1): 4062591 arbitrary units | Globalfluo assay 3 ([Micafungin] log μM −1): 5413646 arbitrary units | Mean globalfluo ([Micafungin] log μM −1): 4668007 arbitrary units | Survival rate (%) ([Micafungin] log μM −1): −2% | Globalfluo assay 1 ([Micafungin] log μM −2): 4648220 arbitrary units | Globalfluo assay 2 ([Micafungin] log μM −2): 3959524 arbitrary units | Globalfluo assay 3 ([Micafungin] log μM −2): 4368024 arbitrary units | Mean globalfluo ([Micafungin] log μM −2): 4325256 arbitrary units | Survival rate (%) ([Micafungin] log μM −2): −4%
